Where two headings read alike, the source gives them in different places.
Legend:
[1] = Toxicity on albino rats by oral administration; settings: rat, in vivo
[2] = system: orthoptera, lepidoptera, coleoptera, diptera, nematoda and acari; experiment: Comparison of the insecticidal, acaricidal and nematocidal activities; format: in vivo; settings: M 8174 vs M 8172 (Table 4); Tables 4 and 5
Source text: Of this material (M 8172) we have estimated the effects on various arthropods at decreasing doses, together with effects shown by a representative compound of the class described by us in this invention (M 8174).

Blatta orientalis = experiment: Biological activity on Blatta orientalis (Ortoptera); format: in vivo; settings: for % ge of activity, Blatta o.: Table 4, 2880 min
Procedure: (10) Biological activity on Blatta orientalis (Ortoptera)
The bottom and walls of glass crystallizers were treated uniformly with an acetonic solution of the products under examination (see Tables 4 and 5). After evaporation of the solvent, into each crystallizer were introduced ten 80-100 days old neanides. The crystallizers were then closed with a metal net cover. After 24 hours from the start of the treatment, the insects were transferred to similar untreated crystallizers, and there were appropriately nourished in conventional manner.
The percentage of mortality (untreated insects=0) was determined after 48 hours from the start of the treatment.

[3] = system: Leptinotarsa decemlineata; experiment: Biological activity on Leptinotarsa decemlineata (Coleoptera); format: in vivo; settings: for mortality at 0.01 %: 48 h, 0,1%o
Procedure: (3) Biological activity on Leptinotarsa decemlineata (Coleoptera)
Small potato plants grown in pots were infested with 4-day old larvae, and were then sprinkled with an aqueous dispersion of the products under examination (see Tables 4 and 5).
The mortality percentage (untreated small plants=0) was determined after 48 hours from treatment.

Tetranychus urticae = experiment: Biological activity on adults of Tetranychus urticae (Acari); format: in vivo; settings: for mortality at 0.0005 %: 24 h, 0,005%o
Procedure: (5) Biological activity on adults of Tetranychus urticae (Acari)
Discs of bean leaves were infested with adult acari and then sprinkled with an aqueous dispersion of the products under examination (see Tables 4 and 5).
The mortality percentage was determined after 24 hours from treatment (untreated leaf discs, mortality=0).

Hilemyia brassicae = experiment: Biological activity on Hilemyia brassicae (Diptera); format: in vivo; settings: Table 4
Procedure: (9) Biological activity on Hilemyia brassicae (Diptera)
Samples of soil were treated by uniform mixing with an aqueous dispersion of the products under examination (see Tables 4 and 5). The soil was then divided into two pots and in each of these 4 small radish plants were transplanted. The plants were subsequently infected by putting to the soil 50 Diptera eggs in the middle of the surface of the pots.
The results were recorded 10 days after treatment by extracting the plants from the soil and by counting the number of larvae present on the roots and on the surrounding soil.
The insecticidal activity was expressed as percentage of reduction of the infestation in comparison with the witness plants (plants transplanted into untreated soil, activity=0).

Culex pipiens = experiment: Biological activity on Culex pipiens larvae (Diptera); format: in vivo; settings: for mortality at 0.2 ppm: 24 h, 0,2 ppm
Procedure: (4) Biological activity on Culex pipiens (Diptera)
Into glasses containing an aqueous dispersion of the products under examination (see Tables 4 and 5) there were introduced mosquito larvae of third and fourth age.
The mortality percentage of the larvae (glasses containing pure water=0) was determined after 24 hours from treatment.

Spodoptera littoralis = experiment: Biological activity on Spodoptera littoralis (Lepidoptera); format: in vivo; settings: for mortality at 0.01 %: 48 h, 0,1%o
Procedure: (7) Biological activity on Spodoptera littoralis (Lepidoptera)
Cut tobacco leaves were sprinkled with an aqueous dispersion of the products under examination (see Tables 4 and 5).
After drying, the leaves were infested with 5-day old larvae.
The percentage of mortality of the larvae was determined after 48 hours from treatment (untreated leaves, mortality=0).

Pieris brassicae = experiment: Biological activity on Pieris brassicae (Lepidoptera); format: in vivo; settings: 48 h, Table 5, read-out: Activity (mortality class), Pieris B.; for mortality at 0.001 %: 0.01%o
Procedure: (2) Biological activity on Pieris brassicae (Lepidotera)
Cut-off cauliflower leaves were sprinkled with an aqueous dispersion of the products under examination (see TABLE 5).
After drying, the leaves were infested with 5-day old larvae. The percentage of mortality of the larvae (untreated leaves=0) was determined after 48 hours from treatment.

Meloidogyne icognita = experiment: Biological activity on Meloidogyne icognita (Nematoda); format: in vivo; settings: 20 ppm; Table 4
Procedure: (8) Biological activity on Meloidogyne icognita (Nematoda)
A 1:1 mixture of field soil and sand, infested with newborne larvae and eggs of Nematoda, were treated, by uniform admixing, with an aqueous dispersion of the products under examination (see Tables 4 and 5). The soil was then distributed into plastic pots, and after 5 days in each pot there were planted 5 small tomato plants about 20 cm high.
The results were recorded 21 days after the transplanting.
The nematocidal activity was expressed as the percentage reduction of infestation with respect to the witness (small plants transplanted into a non-treated soil, activity=0).

Locusta M. = experiment: Activity on Locusta M.; settings: in vivo
warm-blooded animals = experiment: Toxicity toward warm-blooded animals / mammals; format: in vivo
[4] = Blatta orientalis, 48 h, 0,01 g/m^2, Table 5, read-out: Activity (mortality class), Blatta O.
[5] = Table 4, read-out: % ge of activity, Leptinotarsa d.
[6] = 48 h, 0,05%o, Table 4, read-out: % ge of activity, Leptinotarsa d.
[7] = 24 h, 0,01%o, Table 4, read-out: % ge of activity, Tetranycus u. (ad.)
[8] = Table 4, read-out: % ge of activity, Tetranycus u. (ad.)
[9] = 24 h, 0,02 ppm, Table 4, read-out: % ge of activity, Culex p.
[10] = Table 4, read-out: % ge of activity, Culex p.
[11] = Table 4, read-out: % ge of activity, Spodoptera l.
[12] = 48 h, 0,05%o, Table 4, read-out: % ge of activity, Spodoptera l.

Row | Compound | % ge of activity, Blatta o. (Blatta orientalis; 0,01 g/m^2) [%] | % ge of activity, Blatta o. (Blatta orientalis; 0,1 g/m^2) [%] | mortality at 0.01 g/m2 (Blatta orientalis; [4]) [%] | mortality at 0.01 % [3, 5] [%] | mortality at 0.005 % [3, 6] [%] | mortality at 0.001 % (Tetranychus urticae; [7]) [%] | mortality at 0.0005 % (Tetranychus urticae; [8]) [%] | % ge of activity, Hylemyia b. (Hilemyia brassicae; 2 ppm) [%] | % ge of activity, Hylemyia b. (Hilemyia brassicae; 10 ppm) [%] | mortality at 0.02 ppm (Culex pipiens; [9]) [%] | mortality at 0.2 ppm (Culex pipiens; [10]) [%] | mortality at 0.01 % (Spodoptera littoralis; [11]) [%] | mortality at 0.005 % (Spodoptera littoralis; [12]) [%] | mortality at 0.001 % (Pieris brassicae) [%] | % ge of activity, Meloidogyne i. (Meloidogyne icognita) [%] | other results
1 | CCOP(=S)(OCC)Oc1nc(C=C(Cl)Cl)nn1C [M 8174] | 100 | 100 | 100 | 100 | 100 | 100 | 100 | 100 | 100 | 100 | 100 | 100 | 90 | 100 | 100 | LD50 [1]: 1600 mg/kg; activity in words [2]: significantly better activity; mortality at 1 g/m2 (Blatta orientalis; Blatta orientalis, 48 h, 1 g/m^2, Table 5, read-out: Activity (mortality class), Blatta O.): 100%; mortality at 0.005 % ([3]; 48 h, 0.05%o, Table 5, read-out: Activity (mortality class), Leptinotarsa D.): 100%; mortality at 0.1 % ([3]; 48 h, 1%o, Table 5, read-out: Activity (mortality class), Leptinotarsa D.): 100%; mortality at 0.001 % (Tetranychus urticae; 24 h, 0.01%o, Table 5, read-out: Activity (mortality class), Tetranychus U. (adults)): 100%; mortality at 0.1 % (Tetranychus urticae; 24 h, 1%o, Table 5, read-out: Activity (mortality class), Tetranychus U. (adults)): 100%; mortality at 0.02 ppm (Culex pipiens; 24 h, 0.02 ppm, Table 5, read-out: Activity (mortality class), Culex P. (larvae)): 100%; mortality at 2 ppm (Culex pipiens; 24 h, 2 ppm, Table 5, read-out: Activity (mortality class), Culex P. (larvae)): 100%; mortality at 0.005 % (Spodoptera littoralis; 48 h, 0.05%o, Table 5, read-out: Activity (mortality class), Spodoptera L.): 100%; mortality at 0.1 % (Spodoptera littoralis; 48 h, 1%o, Table 5, read-out: Activity (mortality class), Spodoptera L.): 100%; mortality at 0.1 % (Pieris brassicae; 1%o): 100%
2 | CCOP(=S)(OCC)Oc1nc(-c2ccccc2)nn1C [M 8172, 0,0-diethyl-0-[1-methyl-3-phenyl-1,2,4-triazolyl(5)]-thiophosphate, reference compound] | 20 | 100 | 10 to 69 | 92 | 10 | 96 | 76 | 48 | 98 | 0 | 100 | 100 | 15 | 0 to 9 | 40 | mortality at 0.005 % ([3]; 48 h, read-out: Activity (mortality class), Leptinotarsa D.): 10 to 69%; Activity (mortality class), Locusta M. (Locusta M.): + (70-99% of mort.); mortality at 0.001 % (Tetranychus urticae; 24 h, read-out: Activity (mortality class), Tetranychus U. (adults)): 70 to 99%; mortality at 0.02 ppm (Culex pipiens; 24 h, read-out: Activity (mortality class), Culex P. (larvae)): 0 to 9%; mortality at 0.005 % (Spodoptera littoralis; 48 h, read-out: Activity (mortality class), Spodoptera L.): 10 to 69%; toxicity in words (warm-blooded animals): low toxicity towards mammals

Reference: patent publication US4400517A, “Phosphoric esters derived from 1,2,4-triazole having an insecticidal, nematocidal and acaricidal action, and their preparation” (priority 1976, dated 1983)
